Each structure is given as a SMILES string. pIC50: −log10 of the molar value.

Sequence of PRMT5-MEP50 enzyme complex (O14744 2-637): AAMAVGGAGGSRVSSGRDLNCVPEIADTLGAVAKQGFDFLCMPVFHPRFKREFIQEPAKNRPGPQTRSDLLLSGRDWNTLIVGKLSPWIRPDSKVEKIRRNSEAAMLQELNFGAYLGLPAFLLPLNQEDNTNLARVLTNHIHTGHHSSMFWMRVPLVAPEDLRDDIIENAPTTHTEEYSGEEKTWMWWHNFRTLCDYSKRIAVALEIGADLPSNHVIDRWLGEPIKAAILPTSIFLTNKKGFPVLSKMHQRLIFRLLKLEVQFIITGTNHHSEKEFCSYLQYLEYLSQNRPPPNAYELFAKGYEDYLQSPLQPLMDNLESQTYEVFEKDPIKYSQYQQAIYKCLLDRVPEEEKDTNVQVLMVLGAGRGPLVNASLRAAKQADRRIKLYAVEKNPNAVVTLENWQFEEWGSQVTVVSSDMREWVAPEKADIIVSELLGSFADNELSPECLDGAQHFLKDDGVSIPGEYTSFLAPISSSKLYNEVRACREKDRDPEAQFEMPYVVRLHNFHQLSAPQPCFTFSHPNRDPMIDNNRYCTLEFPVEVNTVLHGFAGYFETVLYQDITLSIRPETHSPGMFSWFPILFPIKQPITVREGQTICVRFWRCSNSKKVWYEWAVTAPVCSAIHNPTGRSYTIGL
Sequence of PRMT5-MEP50 enzyme complex (Q9BQA1 2-342 partner): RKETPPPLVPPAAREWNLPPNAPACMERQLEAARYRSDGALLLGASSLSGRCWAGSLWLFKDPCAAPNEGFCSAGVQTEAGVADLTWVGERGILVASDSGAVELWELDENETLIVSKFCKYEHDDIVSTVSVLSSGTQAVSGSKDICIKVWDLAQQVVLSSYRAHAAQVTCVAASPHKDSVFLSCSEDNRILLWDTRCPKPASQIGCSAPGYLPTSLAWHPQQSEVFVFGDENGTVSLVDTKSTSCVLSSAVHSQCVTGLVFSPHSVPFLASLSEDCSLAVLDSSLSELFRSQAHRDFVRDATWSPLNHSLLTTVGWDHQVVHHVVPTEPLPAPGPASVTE

For this assay, the target named is PRMT5-MEP50 enzyme complex (Homo sapiens (Human), UniProt O14744). The assay can be described thus: PRMT5 enzyme activity in vitro assay (methylation of histone H4R3, ELISA absorbance at 450 nm). The class given is biochemical. To be noted: SAM, histone H4 peptide, room temperature 2 hours, 8 points from 10 μM to 0.128 nM. On the procedure:
Method for Measuring Enzyme Activity
In vitro assay: PRMT5-MEP50 enzyme complex, cofactor S-adenosylmethionine (SAM) and histone H4 peptide were reacted in vitro, and methylation of arginine (H4R3)—which is the third amino acid of histone H4—was measured in order to measure the enzyme activity of PRMT5.
Reagents: PRMT5-MEP50 enzyme complex (Catalog No. 51045), blocking buffer (52100-B), histone methyltransferase reaction buffer 2 (4×HMT assay buffer 2, Catalog No. 52170), and primary antibody (primary antibody 4-3, Catalog No. 52150) were purchased from BPS Bioscience (USA). The histone H4 peptide (1-20 amino acids) was custom made by Komabiotech (Korea) and used. S-adenosylmethionine was purchased from NEB (New England Biolabs, USA, Catalog No. B9003S). Plates for coating histone H4 peptide, washing buffer and color development reagent were purchased from the following vendors: Plate (Immobilizer™-Amino Plate, NUNC, Denmark, Catalog No. 436023), carbonate-bicarbonate buffer (Sigma-Aldrich, USA, Catalog No. C3041), washing buffer (10×TBST, Biosesang, Korea, Catalog No. T2005), TMB ELISA substrate (Abcam, UK, Catalog No. ab210902), horseradish peroxidase (HRP)-conjugated antibody (Abcam, UK, Catalog No. ab6721).
Experimental procedure: The histone H4 peptide was diluted with carbonate-bicarbonate buffer and prepared to 100 μg/mL, and then dispensed onto the plate per 100 μL and reacted at 37° C. for 1 hour. PRMT5-MEP50 enzyme complex and S-adenosylmethionine were diluted with histone methyltransferase reaction buffer to prepare 5 μg/mL and 2 μM, respectively, and then 20 μL of PRMT5-MEP50 enzyme complex and 25 μL of S-adenosylmethionine were dispensed onto the plate prepared above. 5 μL of the compound diluted with 10% dimethyl sulfoxide solution was added thereto and reacted at room temperature for 2 hours (final volume=50 μL). The concentration of the compound was diluted 1:5 from 10 μM until the lowest concentration of 0.128 nM, and 8 points were used for the test. After preparing the primary antibody by diluting 1:2000 with blocking buffer, 100 μL was added to the plate and reacted at room temperature for 1 hour. After preparing horseradish peroxidase-conjugated antibody by diluting 1:10,000 with blocking buffer, 100 μL was added to the plate and reacted at room temperature for 1 hour. 100 μL of TMB substrate was added and reacted for 3 minutes at room temperature, and 100 μL of 1 N sulfuric acid was then added to terminate the reaction. Then, the absorbance at 450 nm was measured to calculate the IC50 value of the compound. (+++: 1 to 100 nM, ++: greater than 100 to 1,000 nM, +: greater than 1,000 to 10,000 nM)
In general terms: In an ELISA, binding on a coated surface is turned into a signal by an enzyme label.
For `COc1ccc2c(c1)CCCN(CC(O)CN1CCc3ccccc3C1)C2=O` (stereo not shown) [Example 2, 2-[3-(3,4-dihydro-1H-isoquinolin-2-yl)-2-hydroxy-propyl]-7-methoxy-4,5-dihydro-3H-2-benzazepin-1-one], the pIC50 (in general, the IC50 on a negative log10 scale, so that one unit is a factor of ten) was 6.00 to 7.00.
Next, `O=C1c2ccc(OC(F)(F)F)cc2CCCN1CC(O)CN1CCc2ccccc2C1` (stereo not shown) [Example 4, 2-[3-(3,4-dihydro-1H-isoquinolin-2-yl)-2-hydroxy-propyl]-7-(trifluoromethoxy)-4,5-dihydro-3H-2-benzazepin-1-one]: 6.00 to 7.00; `O=C1c2ccc(C(F)(F)F)cc2OCCN1C[C@H](O)CN1CCc2ccccc2C1` [Example 5, 4-[(2R)-3-(3,4-dihydro-1H-isoquinolin-2-yl)-2-hydroxy-propyl]-8-(trifluoromethyl)-2,3-dihydro-1,4-benzoxazepin-5-one]: 6.00 to 7.00.
Compound `O=C1c2ccc(OC(F)(F)F)cc2CCCN1C[C@H](O)CN1CCc2ccccc2C1` [Example 6, 2-[(2R)-3-(3,4-dihydro-1H-isoquinolin-2-yl)-2-hydroxy-propyl]-7-(trifluoromethoxy)-4,5-dihydro-3H-2-benzazepin-1-one] had a pIC50 of 7.00 to 9.00.
Compound `CCOc1ccc2c(c1)CCCN(C[C@H](O)CN1CCc3ccccc3C1)C2=O` [Example 7, 2-[(2R)-3-(3,4-dihydro-1H-isoquinolin-2-yl)-2-hydroxy-propyl]-7-ethoxy-4,5-dihydro-3H-2-benzazepin-1-one] showed a pIC50 of 6.00 to 7.00.
Turning to `O=C1c2ccc(OS(=O)(=O)C(F)(F)F)cc2CCCN1C[C@H](O)CN1CCc2ccccc2C1` [Example 8, [2-[(2R)-3-(3,4-dihydro-1H-isoquinolin-2-yl)-2-hydroxy-propyl]-1-oxo-4,5-dihydro-3H-2-benzazepin-7-yl]trifluoromethanesulfonate], the pIC50 is 6.00 to 7.00.
Compound `N#Cc1ccc2c(c1)CCCN(C[C@H](O)CN1CCc3ccccc3C1)C2=O` [Example 9, 2-[(2R)-3-(3,4-dihydro-1H-isoquinolin-2-yl)-2-hydroxy-propyl]-1-oxo-4,5-dihydro-3H-2-benz azepin-7-carbonitrile] showed a pIC50 of 6.00 to 7.00.
In the case of `Cc1ccc2c(c1)OCCN(C[C@H](O)CN1CCc3ccccc3C1)C2=O` [Example 10, 4-[(2R)-3-(3,4-dihydro-1H-isoquinolin-2-yl)-2-hydroxy-propyl]-8-methyl-2,3-dihydro-1,4-benzoxazepin-5-one], the pIC50 was 6.00 to 7.00.
In turn, `CC(C)Cc1ccc2c(c1)OCCN(C[C@H](O)CN1CCc3ccccc3C1)C2=O` [Example 12, 4-[(2R)-3-(3,4-dihydro-1H-isoquinolin-2-yl)-2-hydroxy-propyl]-8-isobutyl-2,3-dihydro-1,4-benzoxazepin-5-one] had a pIC50 of 7.00 to 9.00.
The compound `O=C1c2ccc(CCC(F)(F)F)cc2OCCN1C[C@H](O)CN1CCc2ccccc2C1` [Example 13, 4-[(2R)-3-(3,4-dihydro-1H-isoquinolin-2-yl)-2-hydroxy-propyl]-8-(3,3,3-trifluoropropyl)-2,3-dihydro-1,4-benzoxazepin-5-one] showed a pIC50 of 7.00 to 9.00.
Next, `CC(C)(C)OC(=O)N1CC=C(c2ccc3c(c2)OCCN(C[C@H](O)CN2CCc4ccccc4C2)C3=O)CC1` [Example 14, Tert-butyl 4-[4-[(2R)-3-(3,4-dihydro-1H-isoquinolin-2-yl)-2-hydroxy-propyl]-5-oxo-2,3-dihydro-1,4-benzoxazepin-8-yl]-3,6-dihydro-2H-pyridine-1-carboxylate]: 6.00 to 7.00.
`O=C1c2ccc(C3=CCNCC3)cc2OCCN1C[C@H](O)CN1CCc2ccccc2C1` [Example 15, 4-[(2R)-3-(3,4-dihydro-1H-isoquinolin-2-yl)-2-hydroxy-propyl]-8-(1,2,3,6-tetrahydropyridin-4-yl)-2,3-dihydro-1,4-benzoxazepin-5-one]: the pIC50 is 7.00 to 9.00.
On to `CC(=O)N1CC=C(c2ccc3c(c2)OCCN(C[C@H](O)CN2CCc4ccccc4C2)C3=O)CC1` [Example 16, 8-(1-acetyl-3,6-dihydro-2H-pyridin-4-yl)-4-[(2R)-3-(3,4-dihydro-1H-isoquinolin-2-yl)-2-hydroxy-propyl]-2,3-dihydro-1,4-benzoxazepin-5-one], for which the negative-log IC50 (pIC50) is 7.00 to 9.00.
Consider `CC(=O)N1CCC(c2ccc3c(c2)OCCN(C[C@H](O)CN2CCc4ccccc4C2)C3=O)CC1` [Example 17, 8-(1-acetyl-4-piperidyl)-4-[(2R)-3-(3,4-dihydro-1H-isoquinolin-2-yl)-2-hydroxy-propyl]-2,3-dihydro-1,4-benzoxazepin-5-one], for which the pIC50 was 7.00 to 9.00.
Next, `CCN1CC=C(c2ccc3c(c2)OCCN(C[C@H](O)CN2CCc4ccccc4C2)C3=O)CC1` [Example 18, 4-[(2R)-3-(3,4-dihydro-1H-isoquinolin-2-yl)-2-hydroxy-propyl]-8-(1-ethyl-3,6-dihydro-2H-pyridin-4-yl)-2,3-dihydro-1,4-benzoxazepin-5-one]: 6.00 to 7.00.
`CC(C)N1CC=C(c2ccc3c(c2)OCCN(C[C@H](O)CN2CCc4ccccc4C2)C3=O)CC1` [Example 19, 4-[(2R)-3-(3,4-dihydro-1H-isoquinolin-2-yl)-2-hydroxy-propyl]-8-(1-isopropyl-3,6-dihydro-2H-pyridin-4-yl)-2,3-dihydro-1,4-benzoxazepin-5-one] had a pIC50 of 6.00 to 7.00.
`O=C1c2ccc(C3=CCOCC3)cc2OCCN1C[C@H](O)CN1CCc2ccccc2C1` [Example 20, 4-[(2R)-3-(3,4-dihydro-1H-isoquinolin-2-yl)-2-hydroxy-propyl]-8-(3,6-dihydro-2H-pyran-4-yl)-2,3-dihydro-1,4-benzoxazepin-5-one] gave a pIC50 of 6.00 to 7.00.
Next, `O=C1c2ccc(C3CCOCC3)cc2OCCN1C[C@H](O)CN1CCc2ccccc2C1` [Example 21, 4-[(2R)-3-(3,4-dihydro-1H-isoquinolin-2-yl)-2-hydroxy-propyl]-8-tetrahydropyran-4-yl-2,3-dihydro-1,4-benzoxazepin-5-one]: 6.00 to 7.00.
`O=C1c2ccc(CN3CCCCC3)cc2OCCN1C[C@H](O)CN1CCc2ccccc2C1` [Example 23, 4-[(2R)-3-(3,4-dihydro-1H-isoquinolin-2-yl)-2-hydroxy-propyl]-8-(1-piperidylmethyl)-2,3-dihydro-1,4-benzoxazepin-5-one] had a pIC50 of 7.00 to 9.00.
In the case of `O=C1c2ccc(CN3CCCC3)cc2OCCN1C[C@H](O)CN1CCc2ccccc2C1` [Example 24, 4-[(2R)-3-(3,4-dihydro-1H-isoquinolin-2-yl)-2-hydroxy-propyl]-8-(pyrrolidin-1-ylmethyl)-2,3-dihydro-1,4-benzoxazepin-5-one], the pIC50 was 7.00 to 9.00.
To `CN(C)Cc1ccc2c(c1)OCCN(C[C@H](O)CN1CCc3ccccc3C1)C2=O` [Example 25, 4-[(2R)-3-(3,4-dihydro-1H-isoquinolin-2-yl)-2-hydroxy-propyl]-8-[(dimethylamino)methyl]-2,3-dihydro-1,4-benzoxazepin-5-one] belongs 6.00 to 7.00; to `CCN(CC)Cc1ccc2c(c1)OCCN(C[C@H](O)CN1CCc3ccccc3C1)C2=O` [Example 26, 8-(diethylaminomethyl)-4-[(2R)-3-(3,4-dihydro-1H-isoquinolin-2-yl)-2-hydroxy-propyl]-2,3-dihydro-1,4-benzoxazepin-5-one], 6.00 to 7.00.
Next, `CC1CCN(Cc2ccc3c(c2)OCCN(C[C@H](O)CN2CCc4ccccc4C2)C3=O)CC1` [Example 27, 4-[(2R)-3-(3,4-dihydro-1H-isoquinolin-2-yl)-2-hydroxy-propyl]-8-[(4-methyl-1-piperidyl)methyl]-2,3-dihydro-1,4-benzoxazepin-5-one]: 7.00 to 9.00; `O=C1c2ccc(CN3CC4(COC4)C3)cc2OCCN1C[C@H](O)CN1CCc2ccccc2C1` [Example 28, 4-[(2R)-3-(3,4-dihydro-1H-isoquinolin-2-yl)-2-hydroxy-propyl]-8-(2-oxa-6-azaspiro[3.3]heptan-6-ylmethyl)-2,3-dihydro-1,4-benzoxazepin-5-one]: 7.00 to 9.00; `COC1CN(Cc2ccc3c(c2)OCCN(C[C@H](O)CN2CCc4ccccc4C2)C3=O)C1` [Example 29, 4-[(2R)-3-(3,4-dihydro-1H-isoquinolin-2-yl)-2-hydroxy-propyl]-8-[(3-methoxyazetidin-1-yl)methyl]-2,3-dihydro-1,4-benzoxazepin-5-one]: 6.00 to 7.00.
